What all share (type): cell-based
For experiment [1], the system named is NCI H460, MCF7, SF268, HONE-1, NUGC-3, HepG2 and A549 cells. Briefly: Inhibition of cancer cell growth (MTS assay). As to conditions: Homo sapiens, tested cancer cells, 72 h, read-out: CC50 (concentration required to reduce the cancer cell growth by 50%). The method, then:
NCI H460 (human lung cancer cell line), MCF7 (human breast cancer cell line), SF268 (human brain cancer cell line), HONE-1 (human nasopharyngeal epithelial carcinomas cell line), NUGC-3 (human gastric cancer cell line) cells, HepG2 (human hepatocellular carcinoma cell line), and A549 (human lung adenocarcinoma epithelial cell line) were maintained in DMEM medium containing 10% fetal bovine serum, seeded in 96-well plates (2500, 6500, 7500, 4500, 6000, 10000, or 5000 cells/well), and incubated at 37° C. with 5% CO2 supply for 24 h. The cells were then incubated with or without a test compound (at five different concentrations) in a CO2 incubator at 37° C. for 72 h. The number of viable cells in each well was determined by the tetrazolium dye reduction assay (MTS assay) according to the protocol provided by the manufacturer (Promega, Madison, Wis., USA). For each test compound, a dose-response curve was drawn based on the concentrations of the compound versus the numbers of viable cells treated with the compound at those concentrations. The CC50 value of that compound, referring to the concentration of the compound required to reduce the cancer cell growth by 50%, was determined according to the dose-response curve.
For orientation: Formazan colour is commonly taken as a measure of viable cells.

For experiment [2], the system named is NO production in RAW 264.7 cells. The experiment is described as follows: Inhibition of nitric oxide production (Nitrate/Nitrite assay, Griess reagent). As to conditions: Mus musculus, RAW264.7, LPS (10 μg/ml)/IFNγ (20 ng/ml), 18-24 h, read-out: EC50 value for inhibiting nitric oxide production. The protocol:
RAW 264.7 cells were seeded (70,000 cells/well) and cultured in a 96-well culture plate using the DMEM medium described above. 24 hours later, the medium was replaced with a fresh DMEM medium supplemented with LPS (10 μg/ml)/IFNγ (20 ng/ml). Test compounds (at different concentrations) were then added. The cells, incubated with or without test compounds, were then cultured for 18-24 h and the nitrate and nitric oxide levels in the culturing medium were measured using a Nitrate/Nitrite assay kit (Cayman Chemical). Nitrate was reduced to nitrite with nitrate reductase and determined spectrophotometrically with Griess reagent at OD540. For each test compound, a dose-response curve was drawn based on the concentrations of the compound versus the corresponding nitrate/nitric oxide levels in the culturing media of the cells treated with the compound. The EC50 value of that compound for inhibiting nitric oxide production was determined according to the dose-response curve.

The test system of experiment [3] is Transmissible Gastroenteritis Virus (TGEV) spike (S) and nucleocapsid (N) proteins. The experiment is described as follows: Inhibition of TGEV protein production (indirect immunofluorescent assay in ST cells). The method, then:
Swine testicular (ST) cells were cultured in a 96-well plate in the presence or absence of a test compound (at 8 different concentrations) for 2 hours and then infected with TGEV at a MOI of 10. Six hours after TGEV infection, the ST cells were fixed with 80% acetone and subjected to an indirect immunofluorescent assay (IFA) to examine the levels of TGEV spike (S) and nucleocapsid (N) proteins. Briefly, the fixed cells were incubated with murine monoclonal antibodies specific to these two viral proteins for a sufficient period to allow binding of the antibodies to the viral proteins. After being washed with phosphate-buffered saline for three times, the cells were incubated with a fluorescein isothiocyanate-conjugated anti-mouse immunoglobulin antibody (ICN Pharmaceuticals, Inc./Cappel) for 60 min at room temperature. The cells were washed again with phosphate-buffered saline for three times, and the fluorescence intensities released from these cells were measured by a Wallac Victor II system (Packard, Inc.) at excitation and emission wavelengths 485 nm and 535 nm, respectively. The 50% effective concentration (EC50) for inhibiting S and N protein expression of the test compound was determined based on the florescence intensity values thus measured. Alternatively, the fluorescence intensities were detected by fluorescence microscopy. More specifically, the fluorescent images produced under 485 nm and 535 nm were captured by a charge-coupled device linked to a Leica IM50 Image Manager.

[4] abbreviates: Alphacoronavirus 1, ST cells, compound 2 hours before TGEV infection at MOI of 10, read six hours after infection, read-out: EC50 for inhibiting S and N protein expression.
The mark [5] stands for this setting: Alphacoronavirus 1, read-out: EC50 for inhibiting S and N protein expression.

Like-named read-outs stand apart in the source and are kept apart here.

Turning to `CCN1CCc2c(c3cc(OC)c(OC)cc3c3cc(OC)c(OC)cc23)C1` [Compound 18], the CC50 in experiment [1] is < 50 µM.
Consider `CCN1CCc2c(c3cc(OC)ccc3c3cc(OC)c(OC)cc23)C1` [Compound 30], for which the CC50 in experiment [1] was < 50 µM.
For orientation: EC50 means the midpoint of the concentration-response curve. For the molecule `CCN1Cc2c(c3ccc(OC)cc3c3cc(OC)c(OC)cc23)C(O)C1` (centres unmarked) [Compound 33], the EC50 in experiment [2] was < 1 µM. Also, in experiment [1], the CC50 is < 50 µM.
For the molecule `CCN1CCc2c(c3cc(OC)c(OC)cc3c3cc(OC)ccc23)C1` [Compound 5], the CC50 in experiment [1] was < 50 µM. In addition, the EC50 in experiment [3] (setting [4]) was < 1 µM.
Consider `COc1cc2c3c(c4cc(OC)c(OC)cc4c2cc1OC)CN(CCC1OCCO1)CC3` [Compound 24], for which, in experiment [1], the CC50 was < 50 µM.
On to `COc1cc2c3c(c4cc(OC)c(OC)cc4c2cc1OC)CN(CCNC(=O)OC(C)(C)C)CC3` [Compound 35], for which the CC50 in experiment [1] is < 50 µM.
As to `CCC(C)N1CCc2c(c3cc(OC)c(OC)cc3c3cc(OC)c(OC)cc23)C1` (centres unmarked) [Compound 26], the CC50 in experiment [1] was < 50 µM. In experiment [3] (setting [5]), the EC50 is < 1 µM.
With `COc1cc2c3c(c4cc(OC)c(OC)cc4c2cc1OC)C(O)CN(C(C)C)C3` (centres unmarked) [Compound 14], the EC50 in experiment [2] is < 1 µM. For the same molecule, the CC50 in experiment [1] was < 50 µM.
Regarding `COc1cc2c3c(c4cc(OC)c(OC)cc4c2cc1OC)CN(C(C)C)CC3` [Compound 25], the EC50 in experiment [2] and in experiment [3] (setting [5]) was < 1 µM in each case. Also, the CC50 in experiment [1] was < 50 µM.
As to `CCCCN1CCc2c(c3cc(OC)c(OC)cc3c3cc(OC)ccc23)C1` [Compound 7], the CC50 in experiment [1] is < 50 µM.
Same read-out and setting: then `CCCN1CCc2c(c3cc(OC)ccc3c3c(OC)c(OC)ccc23)C1` [Compound 32], with < 50 µM.
For `CCCN1CCc2c(c3cc(OC)c(OC)cc3c3c(OC)c(OC)c(OC)cc23)C1` [Compound 2], in experiment [1], the CC50 is < 50 µM. Besides, in experiment [3] (setting [5]), the concentration for a half-maximal effect (EC50) was < 1 µM.
As for `CCCN1CCc2c(c3cc(OC)c(OC)cc3c3cc(OC)ccc23)C1` [Compound 6], the CC50 in experiment [1] was < 50 µM. Further, the EC50 in experiment [3] (setting [4]) was < 1 µM.
As for `COc1cc2c3c(c4cc(OC)c(OC)cc4c2cc1OC)CN(C1C=CCCC1)CC3` (centres unmarked) [Compound 34], the CC50 in experiment [1] was < 50 µM.
Regarding `CCCN1Cc2c(c3cc(OC)c(OC)cc3c3cc(OC)c(OC)cc23)C(O)C1` (centres unmarked) [Compound 10], the EC50 in experiment [2] and in experiment [3] (setting [4]) was < 1 µM each time. The CC50 in experiment [1] was < 50 µM.
For the molecule `COc1cc2c3c(c4cc(OC)c(OC)cc4c2cc1OC)CN(CCN)CC3` [Compound 36], the CC50 in experiment [1] is < 50 µM.
With `CCN1CCc2c(c3cc(OC)c(OC)cc3c3c(OC)c(OC)c(OC)cc23)C1` [Compound 1], the EC50 in experiment [2] and in experiment [3] (setting [5]) was < 1 µM throughout. Besides, the CC50 in experiment [1] was < 50 µM.
Regarding `CCCCN1CCc2c(c3cc(OC)c(OC)cc3c3c(OC)c(OC)c(OC)cc23)C1` [Compound 3], the CC50 in experiment [1] is < 50 µM.
As for `COc1cc2c3c(c4cc(OC)c(OC)cc4c2cc1OC)CN(CC1OCCO1)CC3` [Compound 23], in experiment [1], the CC50 was < 50 µM.
As for `COc1cc2c3c(c4cc(OC)c(OC)c(OC)c4c2cc1OC)CCN(C(C)C)C3` [Compound 4], in experiment [1], the CC50 is < 50 µM. The 50% effective concentration (EC50) in experiment [3] (setting [4]) is < 1 µM.
As for `COc1cc2c3c(c4cc(OC)c(OC)cc4c2cc1OC)CN(CC(C)C)CC3` [Compound 21], the CC50 in experiment [1] was < 50 µM.
On the same count and under the same terms, then `CCCN1CCc2c(c3ccc(OC)cc3c3cc(OC)c(OC)cc23)C1` [Compound 29], with < 50 µM.
Same read-out and setting: in the case of `CCCCN1CCc2c(c3cc(OC)c(OC)cc3c3cc(OC)c(OC)cc23)C1` [Compound 20] it was < 50 µM.
`CCCN1CCc2c(c3cc(OC)ccc3c3cc(OC)c(OC)cc23)C1` [Compound 31]: the CC50 in experiment [1] was < 50 µM.
As for `CCN1Cc2c(c3cc(OC)c(OC)cc3c3cc(OC)c(OC)cc23)C(O)C1` (centres unmarked) [Compound 9], the half-maximal effective concentration (EC50) in experiment [2] and in experiment [3] (setting [4]) was < 1 µM each time. Besides, in experiment [1], the CC50 is < 50 µM.
For `CCCN1CCc2c(c3cc(OC)c(OC)cc3c3cc(OC)c(OC)cc23)C1` [Compound 19], the CC50 in experiment [1] is < 50 µM. Further, the EC50 in experiment [3] (setting [5]) is < 1 µM.
In the case of `CCCN1Cc2c(c3cc(OC)c(OC)c(OC)c3c3cc(OC)c(OC)cc23)C(O)C1` (centres unmarked) [Compound 8], the CC50 in experiment [1] was < 50 µM. In addition, the EC50 in experiment [3] (setting [4]) was < 1 µM.

Source of the values: patent US8486959B2, “Dibenzo[f,h]isoquinoline derivatives” (National Health Research Institutes, priority 2010, dated 2013).
